Laboratory results as given in ChEMBL document CHEMBL1201862, “PubChem BioAssay data set” (2004).
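1) Cells in 96-well plates. 2) Compound, 48 h, 5 concentrations. 3) Linear interpolation between surrounding doses. 4) Unreached endpoint = highest concentration. The concentration for 50% growth inhibition is given as GI50.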 Activity calls are given as the source filed them. Cut-off read from the data, not from the text of the source: active = GI50 up to about 1.1 µM and inactive = higher.

Key:
Assay in all cases: growth of human tumour cells (NCI), 48 h
U-251 = test system: U-251
A549 = test system: A549
HCT-116 = test system: HCT-116
NCI-H460 = test system: NCI-H460
HCC 2998 = test system: HCC 2998
SNB-19 = test system: SNB-19
HOP-92 = test system: HOP-92
DMS-114 = test system: DMS-114
K562 = test system: K562
SF-268 = test system: SF-268
HT-29 = test system: HT-29
SK-MEL-5 = test system: SK-MEL-5
KM12 = test system: KM12
EKVX = test system: EKVX
OVCAR-5 = test system: OVCAR-5
UO-31 = test system: UO-31
NCI-H23 = test system: NCI-H23
IGROV-1 = test system: IGROV-1
SK-MEL-28 = test system: SK-MEL-28
MDA-MB-231 = test system: MDA-MB-231

| SMILES | GI50 (U-251) | GI50 (A549) | GI50 (HCT-116) | GI50 (NCI-H460) | GI50 (HCC 2998) | GI50 (SNB-19) | GI50 (HOP-92) | GI50 (DMS-114) | GI50 (K562) | GI50 (SF-268) | GI50 (HT-29) | GI50 (SK-MEL-5) | GI50 (KM12) | GI50 (EKVX) | GI50 (OVCAR-5) | GI50 (UO-31) | GI50 (NCI-H23) | GI50 (IGROV-1) | GI50 (SK-MEL-28) | GI50 (MDA-MB-231) |
| --- | --- | --- | --- | --- | --- | --- | --- | --- | --- | --- | --- | --- | --- | --- | --- | --- | --- | --- | --- | --- |
| COC(=O)/C(=N\NC(N)=O)C(C(=O)C(=O)Nc1ccccc1C(=O)OC)c1nc2ccc(C(=O)c3ccccc3)cc2nc1O (configuration not stated) | > 100 µM (inactive) | > 100 µM (inactive) | > 100 µM (inactive) | > 100 µM (inactive) | > 100 µM (inactive) | > 100 µM (inactive) | > 100 µM (inactive) | > 100 µM (inactive) | > 100 µM (inactive) | > 100 µM (inactive) | > 100 µM (inactive) | > 100 µM (inactive) | > 100 µM (inactive) | > 100 µM (inactive) | > 100 µM (inactive) | > 100 µM (inactive) | > 100 µM (inactive) | > 100 µM (inactive) | > 100 µM (inactive) | – |
| CCOC(=O)C(=O)Nc1cccc(Cl)c1C | > 100 µM (inactive) | > 100 µM (inactive) | > 100 µM (inactive) | > 100 µM (inactive) | > 100 µM (inactive) | > 100 µM (inactive) | > 100 µM (inactive) | > 100 µM (inactive) | > 100 µM (inactive) | > 100 µM (inactive) | > 100 µM (inactive) | > 100 µM (inactive) | > 100 µM (inactive) | > 100 µM (inactive) | > 100 µM (inactive) | > 100 µM (inactive) | > 100 µM (inactive) | > 100 µM (inactive) | > 100 µM (inactive) | – |
| COc1ccc(N2C(=O)[C@H]3CC(C)c4c([nH]c5ccccc45)[C@H]3C2=O)cc1 (some centres not stated) | 3.15 µM (inactive) | 5.85 µM (inactive) | 3.37 µM (inactive) | 3.69 µM (inactive) | 3.65 µM (inactive) | 5.66 µM (inactive) | 4.65 µM (inactive) | 2.01 µM (inactive) | 1.15 µM (inactive) | 10.3 µM (inactive) | 2.92 µM (inactive) | 2.31 µM (inactive) | 2.77 µM (inactive) | 24 µM (inactive) | 33.7 µM (inactive) | 5.61 µM (inactive) | 3.8 µM (inactive) | 4.41 µM (inactive) | 4.82 µM (inactive) | 6.35 µM (inactive) |
| CC1=COC(=O)c2ccccc2N1 | > 100 µM (inactive) | > 100 µM (inactive) | > 100 µM (inactive) | > 100 µM (inactive) | > 100 µM (inactive) | > 100 µM (inactive) | > 100 µM (inactive) | > 100 µM (inactive) | > 100 µM (inactive) | > 100 µM (inactive) | > 100 µM (inactive) | > 100 µM (inactive) | > 100 µM (inactive) | > 100 µM (inactive) | > 100 µM (inactive) | > 100 µM (inactive) | > 100 µM (inactive) | > 100 µM (inactive) | > 100 µM (inactive) | – |
| CCN(CC)CCNC(=O)c1ccccc1NC(=O)C(=O)Nc1ccccc1C(=O)NCCN(CC)CC | 44.6 µM (inactive) | > 100 µM (inactive) | 17.5 µM (inactive) | 75 µM (inactive) | 32.5 µM (inactive) | > 100 µM (inactive) | 31.4 µM (inactive) | 32.2 µM (inactive) | 16.4 µM (inactive) | > 100 µM (inactive) | 34.6 µM (inactive) | 18.8 µM (inactive) | 45.6 µM (inactive) | > 100 µM (inactive) | 94 µM (inactive) | > 100 µM (inactive) | > 100 µM (inactive) | > 100 µM (inactive) | 45.4 µM (inactive) | – |
| O=C(Nc1ccc(C(F)(F)F)cc1[N+](=O)[O-])C(=O)C(C(=O)c1ccc2ccccc2c1)C1OC(=O)c2ccccc21 (configuration not stated) | 4.41 µM (inactive) | 8.51 µM (inactive) | 4.36 µM (inactive) | 3.81 µM (inactive) | 5.89 µM (inactive) | 8.51 µM (inactive) | 0.34 µM (active) | 8.71 µM (inactive) | 5.57 µM (inactive) | 4.16 µM (inactive) | 9.08 µM (inactive) | 6.76 µM (inactive) | 11.9 µM (inactive) | 3.32 µM (inactive) | 13.3 µM (inactive) | 13.8 µM (inactive) | 5.31 µM (inactive) | 19.5 µM (inactive) | 3.63 µM (inactive) | – |
| COc1cc2ccc3c4cc(OC)c(OC)cc4c[n+](C)c3c2cc1O | 6.37 µM (inactive) | > 100 µM (inactive) | > 100 µM (inactive) | > 26.7 µM (inactive) | > 100 µM (inactive) | 3.91 µM (inactive) | > 100 µM (inactive) | 8.99 µM (inactive) | > 83.4 µM (inactive) | 0.658 µM (active) | > 100 µM (inactive) | > 100 µM (inactive) | > 100 µM (inactive) | > 100 µM (inactive) | > 100 µM (inactive) | > 100 µM (inactive) | 37.1 µM (inactive) | > 100 µM (inactive) | > 100 µM (inactive) | – |
| FC(F)(F)c1ccc(/C=N/C23CC4CC(CC(C4)C2)C3)cc1 | > 100 µM (inactive) | > 100 µM (inactive) | > 100 µM (inactive) | > 100 µM (inactive) | > 100 µM (inactive) | > 100 µM (inactive) | > 100 µM (inactive) | > 100 µM (inactive) | > 100 µM (inactive) | > 100 µM (inactive) | > 100 µM (inactive) | > 100 µM (inactive) | > 100 µM (inactive) | > 100 µM (inactive) | > 100 µM (inactive) | > 100 µM (inactive) | > 100 µM (inactive) | > 100 µM (inactive) | > 100 µM (inactive) | – |
| CCCCNC(=O)NNC(=O)c1cc(/C=C/c2cccc([N+](=O)[O-])c2)ncn1 | 21.1 µM (inactive) | > 100 µM (inactive) | 20 µM (inactive) | > 100 µM (inactive) | > 100 µM (inactive) | > 100 µM (inactive) | > 100 µM (inactive) | 51.3 µM (inactive) | > 100 µM (inactive) | > 100 µM (inactive) | > 100 µM (inactive) | > 100 µM (inactive) | > 100 µM (inactive) | > 100 µM (inactive) | > 100 µM (inactive) | > 100 µM (inactive) | > 100 µM (inactive) | > 100 µM (inactive) | > 100 µM (inactive) | – |
| CCCCN(CC)C(=O)C(=O)C1C(=O)Nc2ccccc2[S+]1[O-] (configuration not stated) | > 100 µM (inactive) | > 100 µM (inactive) | > 100 µM (inactive) | > 100 µM (inactive) | > 100 µM (inactive) | > 100 µM (inactive) | > 100 µM (inactive) | > 100 µM (inactive) | > 100 µM (inactive) | > 100 µM (inactive) | > 100 µM (inactive) | > 100 µM (inactive) | > 100 µM (inactive) | 55.6 µM (inactive) | > 100 µM (inactive) | > 100 µM (inactive) | > 100 µM (inactive) | > 100 µM (inactive) | > 100 µM (inactive) | – |
| CCN1N=CSC12C(=O)N(c1ccccc1)C(=O)N2c1ccccc1 (configuration not stated) | > 100 µM (inactive) | > 100 µM (inactive) | > 100 µM (inactive) | > 100 µM (inactive) | > 100 µM (inactive) | > 100 µM (inactive) | > 100 µM (inactive) | 57.8 µM (inactive) | > 100 µM (inactive) | > 100 µM (inactive) | > 100 µM (inactive) | > 100 µM (inactive) | > 100 µM (inactive) | > 100 µM (inactive) | – | > 100 µM (inactive) | > 100 µM (inactive) | > 100 µM (inactive) | > 100 µM (inactive) | – |
| CC(C)(C)C1CCC(=O)C(C(O)CC2CC(=O)N(c3ccccc3)C(=O)C2)C1 (configuration not stated) | 80.2 µM (inactive) | > 100 µM (inactive) | > 100 µM (inactive) | > 100 µM (inactive) | > 100 µM (inactive) | > 100 µM (inactive) | > 100 µM (inactive) | > 100 µM (inactive) | > 100 µM (inactive) | 81.5 µM (inactive) | > 100 µM (inactive) | – | > 100 µM (inactive) | > 100 µM (inactive) | > 100 µM (inactive) | > 100 µM (inactive) | > 100 µM (inactive) | > 100 µM (inactive) | > 100 µM (inactive) | – |
